From US10144706B2 (BRISTOL-MYERS SQUIBB COMPANY, priority 2016, dated 2018)
Like-named read-outs stand apart in the source and are kept apart here.

Target: T1, PD-1/PD-L1 interaction (PD-1-Ig / PD-L1-His) (Homo sapiens, UniProt Q9NZQ7)
T1 construct: hPDL1(18-239)-TVMV-His; TVMV protease site linker (C); made in house; host or cells: HEK293T
Experiment: PD-1/PD-L1 Homogenous Time-Resolved Fluorescence (HTRF) binding assay
Settings: PD-L1-His 10 nM, PD-1-Ig 20 nM, read-out: Range or IC50
Outline: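 Human PD-L1-His (10 nM final) was pre-incubated with inhibitor for 15 min, then PD-1-Ig (20 nM final) was added for a further 15 min in dPBS with 0.1% BSA and 0.05% Tween-20. Binding was detected by HTRF using Eu-cryptate anti-Ig (1 nM) and APC anti-His (20 nM).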

T1 sequence (Q9NZQ7 with tags, fused parts or gaps): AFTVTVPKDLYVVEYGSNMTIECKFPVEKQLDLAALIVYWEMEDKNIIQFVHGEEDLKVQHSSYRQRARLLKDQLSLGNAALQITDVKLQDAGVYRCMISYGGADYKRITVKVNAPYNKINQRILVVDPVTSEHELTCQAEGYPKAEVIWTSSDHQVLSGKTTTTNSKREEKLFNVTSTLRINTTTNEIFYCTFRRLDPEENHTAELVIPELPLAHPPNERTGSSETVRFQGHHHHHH

| Structure (SMILES) | IC50 (IC50 range class) [nM] | IC50 (numeric IC50) [nM] |
| --- | --- | --- |
| N#Cc1cncc(COc2cc(OCc3cccc(-c4cccc(COc5cc(OCc6cncc(C#N)c6)c(C(=O)N6CCC(O)CC6)cc5Cl)c4Cl)c3Cl)c(Cl)cc2C(=O)N2CCC(O)CC2)c1 [Example 80060] | 0.04 to 20 | – |
| Cc1c(OCCCNC2CCN(CCO)CC2)cccc1-c1cccc(OCCCN2CC[C@@H](O)C2)c1C [Example 2067, (R)-1-(3-((3′-(3-((1-(2-hydroxyethyl)piperidin-4-yl)amino)propoxy)-2,2′-dimethyl-[1,1′-biphenyl]-3-yl)oxy)propyl)pyrrolidin-3-ol] | 20.1 to 90 | – |
| COc1cc2c(cc1OC)CN(CCCOc1cccc(-c3cccc(OCCCN4CC[C@@H](O)C4)c3C)c1C)CC2 [Example 2004, (R)-1-(3-((3′-(3-(6,7-dimethoxy-3,4-dihydroisoquinolin-2(1H)-yl)propoxy)-2,2′-dimethyl-[1,1′-biphenyl]-3-yl)oxy)propyl)pyrrolidin-3-ol] | 20.1 to 90 | – |
| Cc1c(OCCCN2CCCC(CO)C2)cccc1-c1cccc(OCCCN2CCCC(CO)C2)c1C (mixture of isomers) [Example 2026, ((((2,2′-dimethyl-[1,1′-biphenyl]-3,3′-diyl)bis(oxy))bis(propane-3,1-diyl))bis(piperidine-1,3-diyl))dimethanol] | 0.04 to 20 | – |
| Cc1c(OCCCN(C)CCCN(C)CCCOc2cccc(-c3cccc(OCCCN4CC[C@@H](O)C4)c3C)c2C)cccc1-c1cccc(OCCCN2CC[C@@H](O)C2)c1C [Example 2093, (3R,3′R)-1,1′-((((((propane-1,3-diylbis(methylazanediyl))bis(propane-3,1-diyl))bis(oxy))bis(2,2′-dimethyl-[1,1′-biphenyl]-3′,3-diyl))bis(oxy))bis(propane-3,1-diyl))bis(pyrrolidin-3-ol)] | 20.1 to 90 | – |
| Cc1c(OCCCNC[C@H](O)CO)cccc1-c1cccc(OCCCNC[C@H](O)CO)c1C [Example 2079, (2S,2′S)-3,3′-((((2,2′-dimethyl-[1,1′-biphenyl]-3,3′-diyl)bis(oxy))bis(propane-3,1-diyl))bis(azanediyl))bis(propane-1,2-diol)] | 0.04 to 20 | – |
| Cc1c(OCCCN(CC#N)C[C@H](O)CO)cccc1-c1cccc(OCCCN(CC#N)C[C@H](O)CO)c1C [Example 2100, 2,2′-((((2,2′-dimethyl-[1,1′-biphenyl]-3,3′-diyl)bis(oxy))bis(propane-3,1-diyl))bis(((S)-2,3-dihydroxypropyl)azanediyl))diacetonitrile] | 20.1 to 90 | – |
| Cc1cc(OCc2cccc(-c3cccc(COc4cc(C)c(CNCCC(=O)O)cc4Cl)c3C)c2C)c(Cl)cc1CNCCC(=O)O [Example 5502, 3,3′-((((((2,2′-dimethyl-[1,1′-biphenyl]-3,3′-diyl)bis(methylene))bis(oxy))bis(5-chloro-2-methyl-4,1-phenylene))bis(methylene))bis(azanediyl))dipropionic acid] | 0.04 to 20 | – |
| C[C@](CO)(NCc1cc(Cl)c(OCc2cccc(-c3cccc(COc4cc(OCc5cncc(C#N)c5)c(CN[C@@](C)(CO)C(=O)O)cc4Cl)c3)c2)cc1OCc1cncc(C#N)c1)C(=O)O [Example 40040] | 0.04 to 20 | – |
| CC1CCN(C(=O)c2cc(Cl)c(OCc3cccc(-c4cccc(COc5cc(OCc6cncc(C#N)c6)c(C(=O)N6CCC(C)CC6)cc5Cl)c4Cl)c3Cl)cc2OCc2cncc(C#N)c2)CC1 [Example 80120] | – | 105 |
| Cc1c(OCCCNCCO)cccc1-c1cccc(OCCCN2CC[C@@H](O)C2)c1C [Example 2014, (R)-1-(3-((3′-(3-((2-hydroxyethyl)amino)propoxy)-2,2′-dimethyl-[1,1′-biphenyl]-3-yl)oxy)propyl)pyrrolidin-3-ol] | 20.1 to 90 | – |
| CNCCOCCN(C)CCCOc1cccc(-c2cccc(OCCCN3CC[C@@H](O)C3)c2C)c1C [Example 2096, (R)-1-(3-((2,2′-dimethyl-3′-(3-(methyl(2-(2-(methylamino)ethoxy)ethyl)amino)propoxy)-[1,1′-biphenyl]-3-yl)oxy)propyl)pyrrolidin-3-ol] | 20.1 to 90 | – |
| COC(=O)[C@@H]1CCCCN1Cc1cc(Cl)c(OCc2cccc(-c3cccc(COc4cc(OCc5cncc(C#N)c5)c(CN5CCCC[C@H]5C(=O)OC)cc4Cl)c3C)c2C)cc1OCc1cncc(C#N)c1 [Example 40300] | 90.1 to 1000 | – |
| Cc1c(OCCCN(CCO)CCO)cccc1-c1cccc(OCCCN2CC[C@@H](O)C2)c1C [Example 2068, (R)-2,2′-((3-((3′-(3-(3-hydroxypyrrolidin-1-yl)propoxy)-2,2′-dimethyl-[1,1′-biphenyl]-3-yl)oxy)propyl)azanediyl)bis(ethan-1-ol)] | 90.1 to 1000 | – |
| Cc1c(OCCCN2CC[C@@H](O)C2)cccc1-c1ccc2c(c1)OC(CCN1CC[C@@H](O)C1)CO2 (single isomer, unassigned) [Example 3031] | 0.04 to 20 | – |
| Cc1c(OCCCNCCn2cccn2)cccc1-c1cccc(OCCCN2CC[C@@H](O)C2)c1C [Example 2008, (R)-1-(3-((3′-(3-((2-(1H-pyrazol-1-yl)ethyl)amino)propoxy)-2,2′-dimethyl-[1,1′-biphenyl]-3-yl)oxy)propyl)pyrrolidin-3-ol] | 90.1 to 1000 | – |
| Cc1ccccc1-c1ccc(OCCCN2CC[C@H](O)C2)c(OCCCN2CC[C@H](O)C2)c1 [Example 3021, (3S,3′S)-1,1′-(((2′-methyl-[1,1′-biphenyl]-3,4-diyl)bis(oxy))bis(propane-3,1-diyl))bis(pyrrolidin-3-ol)] | > 10000 | – |
| Cc1c(OCCCN2CC[C@@H](O)C2)cccc1-c1cccc(OCCCN2CCO[C@@H](CO)C2)c1C [Example 2092, (R)-1-(3-((3′-(3-((R)-2-(hydroxymethyl)morpholino)propoxy)-2,2′-dimethyl-[1,1′-biphenyl]-3-yl)oxy)propyl)pyrrolidin-3-ol] | 20.1 to 90 | – |
| Cc1c(OCCCN[C@H]2CC[C@H](O)CC2)cccc1-c1cccc(OCCCN2CC[C@@H](O)C2)c1C [Example 2017, (R)-1-(3-((3′-(3-(((1r,4r)-4-hydroxycyclohexyl)amino)propoxy)-2,2′-dimethyl-[1,1′-biphenyl]-3-yl)oxy)propyl)pyrrolidin-3-ol] | 20.1 to 90 | – |

Other lines, results leading:

| IC50 (IC50 range class) [nM] | IC50 (numeric IC50) [nM] | Structure (SMILES) |
| --- | --- | --- |
| 20.1 to 90 | – | COc1cc(OCc2cccc(-c3cccc(COc4cc(OC)c(CN(C)Cc5cc[nH]n5)cc4Cl)c3C)c2C)c(Cl)cc1CN(C)Cc1cc[nH]n1 [Example 5037, 1,1′-((((2,2′-dimethyl-[1,1′-biphenyl]-3,3′-diyl)bis(methylene))bis(oxy))bis(5-chloro-2-methoxy-4,1-phenylene))bis(N-((1H-pyrazol-3-yl)methyl)-N-methylmethanamine)] |
| 0.04 to 20 | – | Cc1c(COc2cc(OCc3cncc(C#N)c3)c(CN[C@@H](CC#N)C(=O)O)cc2Cl)cccc1-c1cccc(COc2cc(OCc3cncc(C#N)c3)c(CN[C@@H](CC#N)C(=O)O)cc2Cl)c1C [Example 40470] |
| 0.04 to 20 | – | CCCN(Cc1cc(Cl)c(OCc2cccc(-c3cccc(COc4cc(OCc5cncc(C#N)c5)c(CN(CCC)[C@@H](CCO)C(=O)O)cc4Cl)c3C)c2C)cc1OCc1cncc(C#N)c1)[C@@H](CCO)C(=O)O [Example 40750] |
| 0.04 to 20 | – | Cc1c(COc2cc(OCc3cncc(C#N)c3)c(CN3CCC[C@H](C(=O)O)C3)cc2Cl)cccc1-c1cccc(COc2cc(OCc3cncc(C#N)c3)c(CN3CCC[C@H](C(=O)O)C3)cc2Cl)c1C [Example 40490] |
| 0.04 to 20 | – | Cc1c(COc2cc(OCc3cncc(C#N)c3)c(CN(CCC(C)C)C(CCO)C(=O)O)cc2Cl)cccc1-c1cccc(COc2cc(OCc3cncc(C#N)c3)c(CN(CCC(C)C)C(CCO)C(=O)O)cc2Cl)c1C (stereo not shown) [Example 41010] |
| 0.04 to 20 | – | Cc1c(COc2cc(OCc3cncc(C#N)c3)c(CO)cc2Cl)cccc1-c1cccc(COc2cc(OCc3cncc(C#N)c3)c(CN3CCOC[C@@H]3C(=O)O)cc2Cl)c1C [Example 50100] |
| 0.04 to 20 | – | Cc1cc(OCc2cccc(-c3cccc(COc4cc(OCc5cncc(C#N)c5)c(CN[C@@](C)(CO)C(=O)O)cc4Cl)c3C)c2C)c(Cl)cc1CN[C@@](C)(CO)C(=O)O [Example 5507, (S)-2-((4-((3′-((4-((((S)-2-carboxy-1-hydroxypropan-2-yl)amino)methyl)-2-chloro-5-((5-cyanopyridin-3-yl)methoxy)phenoxy)methyl)-2,2′-dimethyl-[1,1′-biphenyl]-3-yl)methoxy)-5-chloro-2-methylbenzyl)amino)-3-hydroxy-2-methylpropanoic acid] |
| 0.04 to 20 | – | COC[C@H](NCc1cc(Cl)c(OCc2cccc(-c3cccc(COc4cc(OCc5cncc(C#N)c5)c(CN[C@@H](COC)C(=O)O)cc4Cl)c3C)c2C)cc1OCc1cncc(C#N)c1)C(=O)O [Example 40340] |
| 0.04 to 20 | – | Cc1c(COc2cc(OCc3cncc(C#N)c3)c(CO)cc2Cl)cccc1-c1cccc(COc2cc(OCc3cncc(C#N)c3)c(CNCC(O)C(=O)O)cc2Cl)c1C (stereo not shown) [Example 50300] |
| 20.1 to 90 | – | COC(=O)CC(O)CNCc1cc(Cl)c(OCc2cccc(-c3cccc(COc4cc(OCc5cncc(C#N)c5)c(CNC/C=C\C(=O)O)cc4Cl)c3C)c2C)cc1OCc1cncc(C#N)c1 (stereo not shown) [Example 40720] |
| 0.04 to 20 | – | Cc1c(COc2cc(OCc3cncc(C#N)c3)c(CN(C)[C@@H](CCO)C(=O)O)cc2Cl)cccc1-c1cccc(COc2cc(OCc3cncc(C#N)c3)c(CN(C)[C@@H](CCO)C(=O)O)cc2Cl)c1C [Example 40760] |
| 0.04 to 20 | – | COc1cc(OCc2cccc(-c3cccc(COc4cc(OCc5cncc(C#N)c5)c(CN(C)[C@@H](CCO)C(=O)O)cc4Cl)c3C)c2C)c(Cl)cc1CN(C)[C@@H](CCO)C(=O)O [Example 5030, N-(4-((3′-((4-((((S)-1-carboxy-3-hydroxypropyl)(methyl)amino)methyl)-2-chloro-5-((5-cyanopyridin-3-yl)methoxy)phenoxy)methyl)-2,2′-dimethyl-[1,1′-biphenyl]-3-yl)methoxy)-5-chloro-2-methoxybenzyl)-N-methyl-L-homoserine] |
